Columns and labels:
[1] = target: T1, hDAT (Homo sapiens, UniProt Q01959); assay: Radioligand binding at hDAT ([3H]WIN35,428)
T1 construct: expressed in transfected cells; host or cells: HEK 293 cells (membrane preparations)

[2] = target: T2, rat TAAR1 (Rattus norvegicus, UniProt Q923Y9); assay: Radioligand binding at rat TAAR1 ([3H]RO5166017)
T2 construct: expressed in transfected cells; host or cells: HEK 293 cells (membrane preparations)

[3] = test system: humans; conditions: ref Trachsel 2012; cited from earlier work
[4] = target: T3, hα2A adrenergic receptor (Homo sapiens, UniProt P08913); assay: Radioligand binding at hα2A adrenergic receptor ([3H]rauwolscine)
T3 construct: expressed in transfected cells; host or cells: Chinese hamster lung cells (membrane preparations)
T3 sequence (P08913 1-465): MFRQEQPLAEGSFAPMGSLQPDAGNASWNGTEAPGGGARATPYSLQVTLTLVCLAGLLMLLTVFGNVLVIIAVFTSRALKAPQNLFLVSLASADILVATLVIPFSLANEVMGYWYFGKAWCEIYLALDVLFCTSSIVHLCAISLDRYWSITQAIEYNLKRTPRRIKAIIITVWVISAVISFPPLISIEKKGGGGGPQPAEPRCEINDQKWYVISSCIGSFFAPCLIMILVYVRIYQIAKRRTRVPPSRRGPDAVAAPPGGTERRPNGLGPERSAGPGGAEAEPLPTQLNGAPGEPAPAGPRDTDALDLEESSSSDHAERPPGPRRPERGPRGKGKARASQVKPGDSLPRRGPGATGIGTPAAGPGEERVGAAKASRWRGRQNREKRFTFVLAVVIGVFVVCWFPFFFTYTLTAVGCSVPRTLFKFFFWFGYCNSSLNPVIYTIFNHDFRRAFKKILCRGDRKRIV

[5] = target: T4, hα1A adrenergic receptor (Homo sapiens, UniProt P35348); assay: Radioligand binding at hα1A adrenergic receptor ([3H]prazosin); conditions: mean ± SD
T4 construct: expressed in transfected cells; host or cells: Chinese hamster ovary cells (membrane preparations)
T4 sequence (P35348 1-466): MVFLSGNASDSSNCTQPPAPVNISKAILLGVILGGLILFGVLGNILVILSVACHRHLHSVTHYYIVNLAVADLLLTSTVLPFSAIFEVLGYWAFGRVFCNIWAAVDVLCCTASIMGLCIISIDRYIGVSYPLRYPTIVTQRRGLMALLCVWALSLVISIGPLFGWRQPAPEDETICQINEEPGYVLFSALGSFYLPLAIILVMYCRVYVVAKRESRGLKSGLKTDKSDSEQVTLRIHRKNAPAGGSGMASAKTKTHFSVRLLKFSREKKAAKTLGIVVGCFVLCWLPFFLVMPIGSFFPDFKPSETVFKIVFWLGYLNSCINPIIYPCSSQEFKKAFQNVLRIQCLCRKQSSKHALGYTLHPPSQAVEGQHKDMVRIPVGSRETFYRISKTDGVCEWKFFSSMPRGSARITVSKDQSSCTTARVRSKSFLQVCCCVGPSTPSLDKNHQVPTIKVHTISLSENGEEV

[6] = test system: head twitch response; design: method as in Halberstadt et al. (2019); conditions: ref Halberstadt et al. (2019); cited from earlier work

T1 sequence (Q01959 whole entry): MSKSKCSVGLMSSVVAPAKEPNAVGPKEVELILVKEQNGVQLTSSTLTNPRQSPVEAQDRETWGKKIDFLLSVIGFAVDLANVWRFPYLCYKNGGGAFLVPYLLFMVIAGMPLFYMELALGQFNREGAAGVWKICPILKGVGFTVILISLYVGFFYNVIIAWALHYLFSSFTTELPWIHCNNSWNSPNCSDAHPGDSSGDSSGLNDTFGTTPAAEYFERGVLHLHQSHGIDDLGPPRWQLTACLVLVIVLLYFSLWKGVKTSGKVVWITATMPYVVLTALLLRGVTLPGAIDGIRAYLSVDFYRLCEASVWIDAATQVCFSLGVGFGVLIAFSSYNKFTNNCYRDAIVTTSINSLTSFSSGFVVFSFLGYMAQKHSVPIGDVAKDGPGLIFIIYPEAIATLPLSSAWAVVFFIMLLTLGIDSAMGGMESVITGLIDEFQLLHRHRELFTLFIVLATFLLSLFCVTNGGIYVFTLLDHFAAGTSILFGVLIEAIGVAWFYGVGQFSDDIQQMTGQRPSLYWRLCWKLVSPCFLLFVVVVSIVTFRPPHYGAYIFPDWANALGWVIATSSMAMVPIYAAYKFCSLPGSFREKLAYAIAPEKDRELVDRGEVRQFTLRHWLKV
T2 sequence (Q923Y9 whole entry): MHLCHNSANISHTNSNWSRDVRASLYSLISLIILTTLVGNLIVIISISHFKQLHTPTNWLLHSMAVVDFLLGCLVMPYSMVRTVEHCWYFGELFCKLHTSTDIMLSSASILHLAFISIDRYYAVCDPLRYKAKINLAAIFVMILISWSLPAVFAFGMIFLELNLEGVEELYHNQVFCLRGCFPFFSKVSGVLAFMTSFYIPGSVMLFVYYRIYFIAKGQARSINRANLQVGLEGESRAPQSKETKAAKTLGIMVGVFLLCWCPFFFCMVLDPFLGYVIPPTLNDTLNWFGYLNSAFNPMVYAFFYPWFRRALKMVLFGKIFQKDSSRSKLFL

Structure (SMILES)	Ki [1] [nM]	Ki [2] [nM]	Increase in human potency compared to mescaline (5) [3] [fold]	Ki [4] [nM]	Ki [5] [nM]	Head twitch response [6]
COc1cc(CCN)cc(OC)c1OC(F)(F)F [compound 13, 4-trifluoromethoxy-3,5-dimethoxyphenethylamine]	> 8500	170 ± 10	> 9	450 ± 60	3200	
COc1cc(CC(C)N)cc(OC)c1OC(F)F (stereo not drawn) [compound 14, 4-difluoromethoxy-3,5-dimethoxyamphetamine]	> 8500	380 ± 20		2600	> 8700	
COc1cc(CCN)cc(OC)c1OCC(F)(F)F [compound 18, 3,5-dimethoxy-4-(2,2,2-trifluoroethoxy)phenethylamine]	> 8500	1200		2300	> 8700	
COc1cc(CCN)cc(OC)c1OC(CF)CF [compound 23, 3,5-dimethoxy-4-(1,3-difluoroprop-2-yloxy)phenethylamine]	> 8500	> 4700		2700	> 8700	
COc1cc(CCN)cc(OC)c1OCCCF [compound 25, 3,5-dimethoxy-4-(3-fluoropropoxy)-phenethylamine]	> 8500	1700		2900	> 8700	
COc1cc(CCN)cc(OC)c1OCCC(F)(F)F [compound 26, 3,5-dimethoxy-4-(3,3,3-trifluoropropoxy)phenethylamine]	> 8500	910 ± 90		2300	> 8700	
CCCOc1c(OC)cc(CC(C)N)cc1OC (stereo not drawn) [compound 28, 3,5-dimethoxy-4-propyloxyamphetamine]	> 8500	3400		4600	> 8700	induced a head twitch response with almost identical potency
COc1cc(CCN)cc(OC)c1OC1CC1 [compound 29, 4-cyclopropyloxy-3,5-dimethoxyphenethylamine]	> 8500	1200		1200	> 8700	
C=C(C)COc1c(OC)cc(CCN)cc1OC [compound 32, 3,5-dimethoxy-4-methallyloxyphenethylamine]	> 8500	1000		1500	> 8700	
COc1cc(CCN)cc(OC)c1OCc1ccccc1 [compound 33, 4-benzyloxy-3,5-dimethoxyphenethylamine]	> 8500	110 ± 10		2300	> 8700	
